{"source": "patent US9609884B2", "about": "“Anti-fatigue agent” (Suntory Holdings Limited, priority 2007, dated 2017)", "assay_type_in_all_cases": "in vivo", "key": {"[1]": {"system": "Balb/c male mice kept under water immersion stress", "test": "Water immersion sleep disturbed test (forced swimming under weight load)", "settings": "once a day for two days during water immersion, weight 8% of body weight", "protocol": "The first thing to do is measure the swimming time in a water immersion sleep disturbed test. Mice that have been kept in an environment such as water immersion where they are unable to have a good sleep or take a rest position so they cannot have a physical or mental rest are forced to swim under a weight load and the time it takes for them to have their nose sunk in the water for a period of ten seconds or longer is measured to confirm the degree of their fatigue. Since this is an animal model for physical or mental fatigue, an extension of the swimming time as achieved by administering it with the test substance means the verification of resistance to fatigue, as exemplified by relief of physical and/or mental fatigue, maintenance of physical vigor in the tired model (increase in body strength), or improvement of stamina. A sesamin/episesamin mixture (sesamin:episesamin=1:1 in weight ratio) was used as a test sample. Effectiveness against fatigue was evaluated by the following partial modification of the method of Tanaka et al. (Neuroscience, Let. 352, 159-162, 2003). The test animals Balb/c male mice (8-week old) were divided into five groups, each consisting of 12 animals and having the same average body weight. Four of those five groups were water immersion groups, which were kept in breeding cages, not on paper chips but in tap water (23° C.) supplied to a depth of 7 mm, thereby disturbing sleep of the mice. […] After two days, each mouse was fitted with a weight at the tail which corresponded to 8% of its body weight, and was allowed to swim in a water tank of 18 cm^φ that was filled with water to a depth of 30 cm; the time it took for each mouse to have its nose sunk in water for a period of at least 10 seconds was measured. The mice in the groups kept under water immersion stress could swim for a shorter period than the mice in the normally kept group and the degree by which the shortening of the swimming time could be controlled in the sesamin administered groups was measured to evaluate the effectiveness of sesamin against fatigue. […]"}, "[2]": {"system": "Sprague Dawley male rats under exercise stress", "test": "Forced exercise test, sesamin given after treadmill exercise stress (recovery from fatigue)", "settings": "180 mg/kg oral in olive oil after 3-hr treadmill exercise stress; versus control group under exercise stress", "protocol": "The second thing to do is measure the motor activity in a forced exercise test. Rats administered with the test substance are forced to have exercise on a treadmill and, thereafter, the motor activity of the animal in the dark period is measured. Since this is an animal model for fatigue from exercise (physical fatigue), an increase in the motor activity as achieved by administering it with the test substance means the verification of resistance to fatigue.\nThe test sample used in Example 2 was the same sesamin as in Example 1.\nSprague Dawley male rats (6-week old) were acclimatized in a test environment for a week and the animals that had shown normal growth were subjected to the test. One day before the start of the test, the rats were divided into five groups each consisting of eight animals. On the day of the test, all animals were starved from the morning and one group of rats was assigned as a resting group that was not to be subjected to exercise stress. […] Thereafter, the animals were transferred to an automatograph (Supermex manufactured by MUROMACHI KIKAI CO., LTD.) and their motor activity in the dark period was measured."}, "[3]": {"system": "Sprague Dawley male rats under exercise stress", "test": "Forced exercise test, sesamin-mixed feed for a week before treadmill exercise stress (prevention of fatigue)", "settings": "versus exercise fatigue control group", "protocol": "The second thing to do is measure the motor activity in a forced exercise test. Rats administered with the test substance are forced to have exercise on a treadmill and, thereafter, the motor activity of the animal in the dark period is measured. Since this is an animal model for fatigue from exercise (physical fatigue), an increase in the motor activity as achieved by administering it with the test substance means the verification of resistance to fatigue. The test sample used in Example 3 was the same sesamin as in Example 1. Sprague Dawley male rats (10-week old) were acclimatized in a test environment for a week and the animals that had shown normal growth were subjected to the test. The rats were divided into three groups each consisting of eight animals. Then, AI[…] was mixed with sesamin to give final concentrations of 0, 0.02, and 0.1% (w/w) to prepare feeds and the rats were let to ingest the respective feeds ad libitum for a week. Thereafter, all animals were given a 3-hr exercise stress by means of a treadmill-type forced walking apparatus (MK-680 manufactured by MUROMACHI KIKAI CO., LTD.) After the end of exercise stress application, the animals were transferred to an automatograph (Supermex manufactured by MUROMACHI KIKAI CO., LTD.) and their motor activity in the dark period was measured."}, "[4]": {"system": "Balb/c male mice kept under water immersion stress", "test": "Measuring fatigue-causing substances (ketone bodies) in the blood of mice under water immersion stress", "settings": "50 mg/kg oral once a day for three days during water immersion; versus control group under water immersion stress (olive oil)", "excerpt": "The third thing to do is measure the amount of fatigue-causing substances in the blood. This involves administering the test substance to check to see if it has an action for controlling an increase in the blood concentration of fatigue-causing substances under a physical or mental stress. Although no substances have been identified to be causative of fatigue, one class of candidates may be ketone bodies (collectively referring to acetoacetate, 3-hydroxybutyrate, and acetone). Ketone bodies are known to be metabolites that are produced when free fatty acids […] from the fat tissue on account of lowered glucose availability undergo β-oxidation. If the production of ketone bodies is enhanced beyond their utilization in the extrahepatic tissues, ketone bodies accumulate in the blood, leading to ketosis. Actoacetate and 3-hydroxybutyrate are moderately strong acids, so if ketone bodies accumulate in amounts exceeding the buffering action of the living body, the blood becomes acidic, causing a condition known as acidosis which, in turn, produces a feeling of weariness (Takanori Yamamoto, Igaku no ayumi (Progress in Medicine), Vol. 204, No. 5:325-329, 2003). […]\nAfter three days, blood was drawn from each mouse and the ketone bodies in the serum were measured by the enzyme method with a biochemical automatic analyzer (Model 7070 of Hitachi, Ltd.)"}}}
{"smiles": "c1cc2c(cc1[C@H]1OC[C@H]3[C@@H]1CO[C@@H]3c1ccc3c(c1)OCO3)OCO2", "note": "[sesamin]", "values": [{"measurement": "swimming time (control group kept under water immersion stress taken as 100%)", "setting": "[1]; 12.5 mg/kg oral", "result": 150, "unit": "%"}, {"measurement": "swimming time (control group kept under water immersion stress taken as 100%)", "setting": "[1]; 50 mg/kg oral", "result": 300, "unit": "%"}, {"measurement": "swimming time (control group kept under water immersion stress taken as 100%)", "setting": "[1]; 200 mg/kg oral", "result": 133, "unit": "%"}, {"measurement": "motor activity in the dark period", "setting": "[2]", "result": "an increase in the motor activity was confirmed"}, {"measurement": "motor (physical) activity in the dark period", "setting": "[3]; mixed feed containing 0.02% (w/w) sesamin ad libitum for a week before 3-hr exercise stress", "result": "almost the same physical activity"}, {"measurement": "motor (physical) activity in the dark period", "setting": "[3]; mixed feed containing 0.1% (w/w) sesamin (about 80 mg/kg) ad libitum for a week before 3-hr exercise stress", "result": "enhanced physical activity"}, {"measurement": "concentration of ketone bodies in the serum", "setting": "[4]", "result": "significant control of the increase in the concentration of ketone bodies"}]}
